From patent publication US8404681B2, “Xanthones, thioxanthones and acridinones as DNA-PK inhibitors” (Luitpold Pharmaceuticals, Inc., priority 2003, dated 2013)

Legend:
[1] = system: MDA-MB231 (human breast carcinoma) cells; test: DNA double-strand break repair assay (pulse field gel electrophoresis after irradiation); format: cell-based; settings: 25 Gy, at concentrations which enhanced radiation induced cell killing
Experimental: To further determine the cellular effect of DNA-PK inhibitors, an assay to measure chromosomal discontinuities was employed. Ionizing radiation induces chromosomal DNA double-strand breaks. Following high dose radiation, chromosomes can be extracted from cells and fractionated by pulse field electrophoresis to distinguish chromosomal fragments from intact larger chromosomes. Using this technique, the activity of DNA-PK inhibitors was measured.
MDA-MB231 (human breast carcinoma) cells were seeded onto T25 flasks with RPMI1640+10% FBS, 2 mM L-glutamine, penicillin G 100 U/ml-streptomycin sulfate 10 μg/ml, 1 mM Na pyruvate. When confluent, media was removed and replaced with media containing DNA-PK inhibitor or vehicle. Cells were incubated at 37° C. for 1 hr in a humidified chamber with 5% CO2. Media then was removed and flasks were filled with ice-cold D-PBS and either: (a) processed immediately; (b) irradiated (25 Gy in a ^137Cs Mark I irradiator at a flux of 335 rad/min) and processed immediately; (c) irradiated and incubated for 2 hr in complete RPMI1640+vehicle at 37° C. (in humidified 5% CO2 atmosphere to allow for DNA repair), or (d) irradiated and incubated for 2 hr in complete RPMI1640+DNA-PK inhibitor compound. […] Chromosomal DNA was visualized with SYBR-Gold (Molecular probes #S-11494) and the fluorescent image quantified on the STORM 860 (Molecular Dynamics).

[2] = system: human colorectal carcinoma cell line, HCT-116; test: Radiation enhancement cellular proliferation assay (3H thymidine incorporation); format: cell-based; settings: HCT-116 cells, γ-radiation at doses up to 800 rads
Experimental: To measure the ability of present DNA-PK inhibitor compounds to enhance the toxic effect of radiation treatment, the human colorectal carcinoma cell line, HCT-116, was incubated with inhibitor compounds at concentrations up to 50 μM and treated with γ-radiation at doses up to 800 rads. Cells were maintained in RPMI 1640 (Gibco) containing 10% […], 1 mM sodium pyruvate, 2 mM L-glutamine, 100 U/mL penicillin, and 100 μg/mL streptomycin at 37° C. with 5% CO2 in a humidified incubator. Cultured cells were trypsinized, counted, and seeded into 96 well plates at a concentration of 1000 cells/well. Cells were incubated with varying concentrations of the inhibitor compounds from 1.8 μM to 50 μM for 10 hr or 5 days, then the media-containing compounds were removed and replaced With fresh media without drug. After five days, ^3H thymidine (1 μCi/well) was added to each well and incubated for an additional 20 hr. The plates were frozen at −70° C. for at least 2 hr and thawed at 37° C. to lyse the cells. DNA was harvested onto glass fiber filters and ^3H thymidine incorporation determined with a Packard Matrix 96 direct beta counter. Compound dependent potentiation of radiation induced cell killing was determined by comparing the effect of radiation alone and radiation plus inhibitor compound.

DNA-PK = molecular target: T1, DNA-PK (Homo sapiens, UniProt P78527); test: Standard DNA-PK assay (phosphorylation of p53 peptide substrate); format: biochemical; settings: purified human DNA-PK, 50 μM ATP, room temperature, read-out: IC50 (inhibition of DNA-PK enzyme activity)
T1 construct: HeLa S3 cells (ATCC CCL-2.2; Batch F12594) were raised in MEM-Joklik media; endogenous in cells; host or cells: HeLa S3 cells (ATCC CCL-2.2); Endogenous enzyme purified in house: S100-2 fraction, then Q-Sepharose FF, then SP-Sepharose FF, giving fraction IV
Experimental: Reactions were carried out at room temperature. Reactions were started by addition of ATP and stopped by application to phosphocellulose paper. Reaction products spotted onto phosphocellulose paper were washed five times with a total volume of at least 250 mL 10% acetic acid or 150 mM phosphoric acid. The paper was air dried and radioactivity was determined in a Beckman LS6000IC scintillation counter.

Structure (SMILES): O=c1c2ccccc2n(Cc2ccccc2)c2cc(N3CCOCC3)cc(O)c12 [Example 28, 10-Benzyl-1-hydroxy-3-morpholin-4-yl-10H-acridin-9-one]
- DNA double-strand break repair [1]: inhibited DNA double-strand break repair
- concentration that enhanced radiation induced cell killing 2-fold [2]: 17.5 µM
- IC50 (DNA-PK): 20 nM
